According to ChEMBL document CHEMBL1146265, “Synthesis and structure-activity studies of antofine analogues as potential anticancer agents” (Bioorg Med Chem Lett, 2007):

Legend:
Type in all cases: functional, cell-based
A549 = test: Cytotoxicity against human A549 cells by SRB assay
HT-1080 = test: Cytotoxicity against human HT1080 cells by SRB assay
HCT-116 = test: Cytotoxicity against human HCT116 cells by SRB assay

COc1cc2c3c(c4ccc(OC(C)C)cc4c2cc1OC)CN1CCCC1C3 (stereo not given)
IC50 (A549): 40.5 nM | IC50 (HT-1080): 23.6 nM | IC50 (HCT-116): 19.2 nM

COc1ccc2c3c(c4cc(O)c(OC)cc4c2c1)CC1CCCN1C3 (stereo not given)
IC50 (A549): > 100 nM | IC50 (HT-1080): 72.6 nM | IC50 (HCT-116): 68.3 nM

COc1ccc2c3c(c4cc5c(cc4c2c1)OCO5)CC1CCCN1C3 (stereo not given)
IC50 (A549): 747 nM | IC50 (HT-1080): 453 nM | IC50 (HCT-116): 364 nM

COc1cc2c3c(c4ccc(O)cc4c2cc1OC)CN1CCCC1C3 (stereo not given)
IC50 (A549): 1.4 nM | IC50 (HT-1080): 1.1 nM | IC50 (HCT-116): 1.1 nM

COc1cc2c3c(c4ccccc4c2cc1OC)CN1CCCC1C3 (stereo not given)
IC50 (A549): > 100 nM | IC50 (HT-1080): 59.1 nM | IC50 (HCT-116): 49.3 nM

COc1ccc2c3c(c4cc(OC)c(OC(C)C)cc4c2c1)CC1CCCN1C3 (stereo not given)
IC50 (A549): 53.9 nM | IC50 (HT-1080): 37.4 nM | IC50 (HCT-116): 24.7 nM

COc1ccc2c3c(c4cc(OC)c(O)cc4c2c1)CC1CCCN1C3 (stereo not given)
IC50 (A549): 49.8 nM | IC50 (HT-1080): 19.8 nM | IC50 (HCT-116): 21.4 nM

COc1ccc2c3c(c4cc(OC(C)C)c(OC)cc4c2c1)CC1CCCN1C3 (stereo not given)
IC50 (A549): > 1000 nM | IC50 (HT-1080): > 1000 nM | IC50 (HCT-116): 783 nM

COc1ccc2c3c(c4cc(OC)c(OC)cc4c2c1)CC1CCCN1C3 (stereo not drawn) [(+/-)-ANTOFINE]
IC50 (A549): 25.1 nM | IC50 (HT-1080): 27.5 nM | IC50 (HCT-116): 29.4 nM

COc1ccc2c3c(c4cc(OC)c(OC)cc4c2c1)C[C@H]1CCCN1C3 [(-)-ANTOFINE]
IC50 (A549): 10.4 nM | IC50 (HT-1080): 9.6 nM | IC50 (HCT-116): 9.9 nM
